In patent US7595056B1, “Methods of rejuvenating Leydig cells and enhancing testosterone production in a male subject” (University of Tennessee Research Foundation, priority 2002, dated 2009):
“Also recorded” adds a separate entry of the source. Blank lines part the entries; values can stand above or below the molecule they belong to.

Columns and labels:
[1] = system: testis of Brown Norway rats; assay: Microscopy and stereology of the testis of aged Brown Norway rats treated 4 weeks with LH, T4 or LH+T4; assay type: in vivo, Brown Norway rat
Source text: (§1) Male Brown Norway rats aged 3, 6, 12 (n=8 per group; 3M, 6M, and 12M, respectively), and 18 months (M) (n=32; 18M) were purchased from Harlan (Madison, Wis., United States of America). The 18M rats were divided equally into four groups (n=8 per group). Under deep inhalation anesthesia (METOFANE™; Malincroft Veterinary, Inc., Mundelein, Ill., United States of America), the four groups of 18M rats were implanted subdermally with ALZET™ mini-osmotic pumps (model 2ML4; Alza Corporation, Palo Alto, Calif., United States of America), containing saline (control), LH (24 μg/day; National Hormone and Pituitary Program, Los Angeles, Calif., United States of America), thyroxine (T4; 5 μg/day; Sigma, St. Louis, Mo., United States of America), and LH and T4 (LH+T4; two pumps, 24 […] of T4), respectively, for 4 weeks (to 19 months [19M] of age). These doses of LH (Mendis-Handagama et al., (1998) Tissue Cell 30:64-73) and thyroid hormone (Ariyaratne et al., (2000) Biol. Reprod. 63:1115-1123) were used based on previously published studies. Rats were maintained under conditions of controlled temperature (25° C.) and lighting (14 hour/10 hour light/dark cycle) and were housed individually (one rat per cage). The animals were fed with Agway PROLAB™ rat formula (Agway, Syracuse, N.Y., United States of America) and water ad libitum until they were sacrificed. The animal protocol employed (No. 488) meets the guidelines of the National Institutes of Health and was approved by the University of Tennessee Animal Care and Concerns Committee.
Pumps were filled with either saline, LH, or T4, and were primed in saline for 3 hours before implantation so that they would deliver their contents immediately on subdermal implantation into the interscapular region. The LH+T4 rats received two pumps each, one containing LH and one containing T4; the other rats received one pump containing either saline, LH, or T4. After 4 weeks of treatment, rats were sacrificed. In addition, implanted pumps were removed and examined to verify that they had delivered their contents as expected.
One testis of each rat in the 3M, 6M, 12M, and 19M age groups was removed, cleaned of fat, and weighed on a Mettler H54 balance to obtain the fresh testis weight. Using the flotation technique (Mendis-Handagama et al., (1988) Am. J. Anat. 181:12-22; Mori & Christensen, (1980) J. Cell. Biol. 84:340-354; and Mendis-Handagama & Ewing, (1990) J. Microsc. (Oxf) 159:73-82), the specific gravity of the fresh testis was determined as described previously (Mori & Christensen, (1980) J. Cell. Biol. 84:340-354 and Mendis-Handagama & Ewing, (1990) J. Microsc. (Oxford) 159:73-82), and the fresh testis volume was calculated by dividing the fresh testis weight by the specific gravity (in metric units, specific gravity equals density). This measurement is required to express Leydig cell numbers per testis, because numerical density is obtained as a number per unit volume of the testis. The testis was then decapsulated, and the entire testis was incubated for 3 hours in the same medium as described previously (Ariyaratne et al., (2000) Biol. Reprod. 63:1115-1123; Mendis-Handagama et al., (1998) Biol. Reprod. 59:351-357; Mendis-Handagama et al., (1990) J. Androl. 11:548-554; Ariyaratne et al., (2000) Biol. Reprod. 63:493-502; and Ariyaratne & Mendis-Handagama, (2000) Biol. Reprod. 62:158-168) to determine the LH-stimulated testosterone-secretory capacity per testis in vitro. Testosterone levels in the incubation medium were measured by RIA using commercially available kits (COAT-A-COUNT™), and the details of the assay are given above (see Laboratory Example 4). Testosterone-secretory capacity per Leydig cell was calculated by dividing the testosterone-secretory capacity per testis by the number of Leydig cells per testis. […]

Leydig cells [2] = assay: LH-stimulated testicular steroidogenesis in vitro (testis of treated rats incubated 3 hours, testosterone by RIA); assay type: in vivo, Brown Norway rat
Source text: Male Brown Norway rats aged 3, 6, 12 (n=8 per group; 3M, 6M, and 12M, respectively), and 18 months (M) (n=32; 18M) were purchased from Harlan (Madison, Wis., United States of America). The 18M rats were divided equally into four groups (n=8 per group). Under deep inhalation anesthesia (METOFANE™; Malincroft Veterinary, Inc., Mundelein, Ill., United States of America), the four groups of 18M rats were implanted subdermally with ALZET™ mini-osmotic pumps (model 2ML4; Alza Corporation, Palo Alto, Calif., United States of America), containing saline (control), LH (24 μg/day; National Hormone and Pituitary Program, Los Angeles, Calif., United States of America), thyroxine (T4; 5 μg/day; Sigma, St. Louis, Mo., United States of America), and LH and T4 (LH+T4; two pumps, 24 […] of T4), respectively, for 4 weeks (to 19 months [19M] of age). […]
One testis of each rat in the 3M, 6M, 12M, and 19M age groups was removed, cleaned of fat, and weighed on a Mettler H54 balance to obtain the fresh testis weight. Using the flotation technique (Mendis-Handagama et al., (1988) Am. J. Anat. 181:12-22; Mori & Christensen, (1980) J. Cell. Biol. 84:340-354; and Mendis-Handagama & Ewing, (1990) J. Microsc. (Oxf) 159:73-82), the specific gravity of the fresh testis was determined as described previously (Mori & Christensen, (1980) J. Cell. Biol. 84:340-354 and Mendis-Handagama & Ewing, (1990) J. Microsc. (Oxford) 159:73-82), and the fresh testis volume was calculated by dividing the fresh testis weight by the specific gravity (in metric units, specific gravity equals density). […] Testosterone levels in the incubation medium were measured by RIA using commercially available kits (COAT-A-COUNT™), and the details of the assay are given above (see Laboratory Example 4). Testosterone-secretory capacity per Leydig cell was calculated by dividing the testosterone-secretory capacity per testis by the number of Leydig cells per testis. […]

[3] = RIA for serum LH, T4, triiodothyronine and testosterone of treated rats; assay type: in vivo, Brown Norway rat
Source text: as §1, with “Committee. […]” for “Committee.”
Serum LH hormone was quantified using a commercially available rat luteinizing hormone (rLH) kit (Amersham Pharmacia Biotech, Piscataway, N.J., United States of America). […]
The PC SAS software (SAS Institute Inc., Cary, N.C., United States of America) was used to analyze the data. Results are expressed as mean± standard error of the mean (SEM). […]

Leydig cells [4] = conditions: Leydig cells isolated from 60 days old rats, in vitro; cited from earlier work
rat TSH (rat) = rat TSH (rat) (UniProt P11962); assay: RIA, rat LH kit (Amersham Pharmacia Biotech); cross-reactivity against rat LH as reference
[5] = biological target: rat adenocorticotropic hormone (ACTH) (rat) (UniProt P01194); assay: as above
[6] = biological target: rat follicle stimulating hormone (FSH) (rat) (UniProt P11962); assay: as above
rat growth hormone (rat) = rat growth hormone (rat) (UniProt P01244); assay: as above
rat prolactin (rat) = rat prolactin (rat) (UniProt P01237); assay: as above
[7] = 19M Brown Norway rats after 4 weeks subdermal osmotic pump (LH 24 μg/day, T4 5 μg/day), mean, n=8

UniProt P01194, sequence (P01194 124-162 limits assumed): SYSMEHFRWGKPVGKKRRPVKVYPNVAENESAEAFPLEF
UniProt P01244, sequence (P01244 27-216 limits assumed): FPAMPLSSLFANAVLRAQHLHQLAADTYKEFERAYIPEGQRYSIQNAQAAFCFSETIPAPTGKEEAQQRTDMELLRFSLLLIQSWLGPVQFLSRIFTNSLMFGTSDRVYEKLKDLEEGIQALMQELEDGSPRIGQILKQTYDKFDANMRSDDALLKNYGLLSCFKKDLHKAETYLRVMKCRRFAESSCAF
UniProt P01237, sequence (P01237 30-226 limits assumed): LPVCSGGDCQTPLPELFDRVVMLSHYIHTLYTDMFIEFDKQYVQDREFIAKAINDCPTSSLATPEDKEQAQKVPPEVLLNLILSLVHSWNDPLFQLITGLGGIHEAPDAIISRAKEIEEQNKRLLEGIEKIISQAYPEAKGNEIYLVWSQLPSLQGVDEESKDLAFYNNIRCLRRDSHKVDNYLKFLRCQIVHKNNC

Serum LH levels, comparison between groups in words ([3]; 19M treated rats versus 3M through 12M rats): reduced significantly
Molecule: N[C@@H](Cc1cc(I)c(Oc2cc(I)c(O)c(I)c2)c(I)c1)C(=O)O [T4, L-3,5,3′,5′-tetraiodothyronine]
Average volume of a Leydig cell [1, 7]: 1998 μm^3
Leydig cell number per Testis [1, 7]: 21.80 10^6
Volume density of Leydig cells [1, 7]: 2.38%
Absolute volume of Leydig cells per testis, comparison between groups in words ([1]; 19M treated rats versus 19M control and younger rats, P<0.05): higher values compared to 19M control rats; also recorded: not significantly different from those of 12M rats
Average volume of a Leydig cell, comparison between groups in words ([1]; 19M treated rats versus younger rats, P<0.05): significantly lower than those in 3M and 6M rats; also recorded: partially effective
Size of Leydig cell profiles in tissue sections ([1]; light microscopy, 19M treated rats versus 19M control rats): much larger than those in 19M control rats
Mean Absolute Volume of Leydig cells ([1]; per testis, 19M Brown Norway rats after 4 weeks subdermal osmotic pump (LH 24 μg/day, T4 5 μg/day), mean, n=8): 43.57 mm^3
LH-stimulated testosterone-secretory capacity per testis and per Leydig cell in vitro, comparison between groups in words (Leydig cells [2]; 19M treated rats versus younger rats): comparable to those in 12M rats
Mean Testosterone-Secretory Capacity Per testis (Leydig cells [2]; LH-stimulated, in vitro, 3 hours incubation, testis of 19M rats treated 4 weeks (LH 24 μg/day, T4 5 μg/day), mean, n=8): 14,748 ng
Mean Testosterone-Secretory Capacity Per Leydig cell (Leydig cells [2]; LH-stimulated, in vitro, capacity per testis divided by number of Leydig cells per testis, 19M rats treated 4 weeks): 0.67 pg
Mean Serum Testosterone [3, 7]: 73 ng/dL
Serum testosterone levels, comparison between groups in words ([3]; 19M treated rats versus 19M controls and younger rats, P<0.05): significantly greater than 19M controls; also recorded: significantly lower than those in 3M through 12M rats; also recorded: not sufficient to upgrade the serum testosterone levels in 19M rats to those of 3M and 6M rats

Molecule: N[C@@H](Cc1cc(I)c(Oc2ccc(O)c(I)c2)c(I)c1)C(=O)O [T3, L-3,5,3′-triiodothyronine]
Effect on testosterone secretion of Leydig cells (Leydig cells [4]): increased testosterone secretion of Leydig cells in a dose dependent fashion up to 50 ng
Minimum effective dose for testosterone production (Leydig cells [4]): 25 ng

cross-reactivity (rat TSH (rat)): 0.66%
cross-reactivity [5]: < 0.00092%
cross-reactivity [6]: < 0.016%
cross-reactivity (rat growth hormone (rat)): 0.1%
cross-reactivity (rat prolactin (rat)): < 0.8%
Molecule: antibody for LH of the commercially available rat luteinizing hormone (rLH) RIA kit (Amersham Pharmacia Biotech)
